ChEMBL document CHEMBL1201862, “PubChem BioAssay data set” (2004)
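Values below derive from 48-hour exposures of cells grown in 96-well plates, with endpoints linearly interpolated between the two concentrations bracketing the appropriate inhibition level. GI50: concentration for 50% inhibition of growth.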 Active and inactive are the calls of the source. Rule as the data show it: active = GI50 up to about 1.1 µM and inactive = higher.

Columns and labels:
Test in all cases: growth of human tumour cells (NCI), 48 h
786-0 = test system: 786-0
A498 = test system: A498
A549 = test system: A549
ACHN = test system: ACHN
CAKI-1 = test system: CAKI-1
CCRF-CEM = test system: CCRF-CEM
COLO 205 = test system: COLO 205
DLD-1 = test system: DLD-1
DMS-114 = test system: DMS-114
DMS-273 = test system: DMS-273
EKVX = test system: EKVX
HCC 2998 = test system: HCC 2998
HCT-116 = test system: HCT-116
HCT-15 = test system: HCT-15
HL-60 = test system: HL-60
HOP-62 = test system: HOP-62
HOP-92 = test system: HOP-92
IGROV-1 = test system: IGROV-1
K562 = test system: K562
KM-20L2 = test system: KM-20L2
KM12 = test system: KM12
LOX IMVI = test system: LOX IMVI
M14 = test system: M14
M19-MEL = test system: M19-MEL
MOLT-4 = test system: MOLT-4
Malme-3M = test system: Malme-3M
NCI-H226 = test system: NCI-H226
NCI-H23 = test system: NCI-H23
NCI-H460 = test system: NCI-H460
NCI-H522 = test system: NCI-H522
OVCAR-3 = test system: OVCAR-3
OVCAR-4 = test system: OVCAR-4
OVCAR-5 = test system: OVCAR-5
OVCAR-8 = test system: OVCAR-8
RPMI-8226 = test system: RPMI-8226
RXF 393 = test system: RXF 393
SF-268 = test system: SF-268
SF-295 = test system: SF-295
SF-539 = test system: SF-539
SK-MEL-28 = test system: SK-MEL-28
SK-MEL-2 = test system: SK-MEL-2
SK-MEL-5 = test system: SK-MEL-5
SK-OV-3 = test system: SK-OV-3
SN12C = test system: SN12C
SNB-19 = test system: SNB-19
SNB-75 = test system: SNB-75
SNB-78 = test system: SNB-78
SW-620 = test system: SW-620
TK-10 = test system: TK-10
U-251 = test system: U-251
UACC-257 = test system: UACC-257
UACC-62 = test system: UACC-62
UO-31 = test system: UO-31
XF498 = test system: XF498
HT-29 = test system: HT-29
LXFL 529 = test system: LXFL 529
SR = test system: SR

Clc1ccccc1CN1COc2c(ccc3cccnc23)C1
GI50 (786-0): 4.28 µM (inactive) | GI50 (A498): 8.24 µM (inactive) | GI50 (A549): 3.75 µM (inactive) | GI50 (ACHN): 3.72 µM (inactive) | GI50 (CAKI-1): 2.88 µM (inactive) | GI50 (CCRF-CEM): 0.405 µM (active) | GI50 (COLO 205): 8.38 µM (inactive) | GI50 (DLD-1): 4.66 µM (inactive) | GI50 (DMS-114): 2.67 µM (inactive) | GI50 (DMS-273): 3.42 µM (inactive) | GI50 (EKVX): 4.46 µM (inactive) | GI50 (HCC 2998): 6.95 µM (inactive) | GI50 (HCT-116): 3.07 µM (inactive) | GI50 (HCT-15): 2.06 µM | GI50 (HL-60): 1.83 µM (inactive) | GI50 (HOP-62): 2.69 µM (inactive) | GI50 (HOP-92): 2.36 µM (inactive) | GI50 (IGROV-1): 3.5 µM (inactive) | GI50 (K562): 2.12 µM (inactive) | GI50 (KM-20L2): 15.7 µM (inactive) | GI50 (KM12): 3.98 µM (inactive) | GI50 (LOX IMVI): 4.4 µM (inactive) | GI50 (M14): 2.59 µM (inactive) | GI50 (M19-MEL): 4.14 µM (inactive) | GI50 (MOLT-4): 2.22 µM (inactive) | GI50 (Malme-3M): 4.78 µM (inactive) | GI50 (NCI-H226): 3.87 µM (inactive) | GI50 (NCI-H23): 1.62 µM (inactive) | GI50 (NCI-H460): 5.19 µM (inactive) | GI50 (NCI-H522): 0.404 µM (active) | GI50 (OVCAR-3): 3.32 µM (inactive) | GI50 (OVCAR-4): 3.6 µM (inactive) | GI50 (OVCAR-5): 7.41 µM (inactive) | GI50 (OVCAR-8): 4.19 µM (inactive) | GI50 (RPMI-8226): 2.73 µM (inactive) | GI50 (RXF 393): 3.4 µM (inactive) | GI50 (SF-268): 3.65 µM (inactive) | GI50 (SF-295): 3.2 µM (inactive) | GI50 (SF-539): 3.59 µM (inactive) | GI50 (SK-MEL-28): 3.61 µM (inactive) | GI50 (SK-MEL-2): 1.72 µM (inactive) | GI50 (SK-MEL-5): 2.77 µM (inactive) | GI50 (SK-OV-3): 8.05 µM (inactive) | GI50 (SN12C): 6.93 µM (inactive) | GI50 (SNB-19): 11.8 µM (inactive) | GI50 (SNB-75): 7.91 µM (inactive) | GI50 (SNB-78): 3.37 µM (inactive) | GI50 (SW-620): 3.42 µM (inactive) | GI50 (TK-10): 10.4 µM (inactive) | GI50 (U-251): 5.6 µM (inactive) | GI50 (UACC-257): 2.72 µM (inactive) | GI50 (UACC-62): 3.09 µM (inactive) | GI50 (UO-31): 1.8 µM (inactive) | GI50 (XF498): 9.68 µM (inactive)

Cc1cccc(NC(=O)CC#N)c1Cl
GI50 (786-0): > 100 µM (inactive) | GI50 (A549): > 100 µM (inactive) | GI50 (ACHN): > 100 µM (inactive) | GI50 (CAKI-1): > 100 µM (inactive) | GI50 (CCRF-CEM): > 100 µM (inactive) | GI50 (DLD-1): > 100 µM (inactive) | GI50 (DMS-273): > 100 µM (inactive) | GI50 (EKVX): > 100 µM (inactive) | GI50 (HCT-116): > 100 µM (inactive) | GI50 (HCT-15): > 100 µM | GI50 (HL-60): > 100 µM (inactive) | GI50 (HOP-92): > 100 µM (inactive) | GI50 (HT-29): > 100 µM (inactive) | GI50 (IGROV-1): > 100 µM (inactive) | GI50 (K562): > 100 µM (inactive) | GI50 (KM-20L2): > 100 µM (inactive) | GI50 (KM12): > 100 µM (inactive) | GI50 (LOX IMVI): > 100 µM (inactive) | GI50 (LXFL 529): > 100 µM (inactive) | GI50 (M14): > 100 µM (inactive) | GI50 (M19-MEL): > 100 µM (inactive) | GI50 (MOLT-4): > 100 µM (inactive) | GI50 (Malme-3M): > 100 µM (inactive) | GI50 (NCI-H226): > 100 µM (inactive) | GI50 (NCI-H23): > 100 µM (inactive) | GI50 (NCI-H522): > 100 µM (inactive) | GI50 (OVCAR-3): > 100 µM (inactive) | GI50 (RPMI-8226): > 100 µM (inactive) | GI50 (SF-268): > 100 µM (inactive) | GI50 (SF-295): > 100 µM (inactive) | GI50 (SF-539): > 100 µM (inactive) | GI50 (SK-MEL-28): > 100 µM (inactive) | GI50 (SK-MEL-2): > 100 µM (inactive) | GI50 (SK-OV-3): > 100 µM (inactive) | GI50 (SN12C): > 100 µM (inactive) | GI50 (SNB-19): > 100 µM (inactive) | GI50 (SNB-75): > 100 µM (inactive) | GI50 (SNB-78): > 100 µM (inactive) | GI50 (SR): > 100 µM (inactive) | GI50 (SW-620): > 100 µM (inactive) | GI50 (TK-10): > 100 µM (inactive) | GI50 (U-251): > 100 µM (inactive) | GI50 (UACC-257): > 100 µM (inactive) | GI50 (UACC-62): > 100 µM (inactive) | GI50 (UO-31): 99.3 µM (inactive) | GI50 (XF498): > 100 µM (inactive)
